Data as given in publication PMC10525797, “Streptomyces rugosispiralis sp. nov., a Novel Actinobacterium Isolated from Peat Swamp Forest Soil That Produces Ansamycin Derivatives and Nocardamines” (Antibiotics, 2023).
≈ marks a conversion by molar mass, not a printed value.

Tests used:
Bacillus cereus = assay: Antibacterial resazurin microplate assay (REMA), anti-B. cereus; type: cell-based; conditions: inactive = at the final concentration of 50 μg/mL
[1] = tested on: Mycobacterium tuberculosis strain H37Ra; assay: microbe, parasite or virus in culture; type: cell-based; conditions: for MIC: Mycobacterium tuberculosis, H37RA, read-out: Anti-M. tuberculosis MIC
[2] = tested on: Plasmodium falciparum (K-1, multi-drug resistant strain); assay: microbe, parasite or virus in culture; type: cell-based; conditions: for Anti-P. falciparum IC50: K-1 multi-drug resistant strain, inactive = at the final concentration of 50 μg/mL; for IC50: Plasmodium falciparum, read-out: Anti-P. falciparum IC50
[3] = tested on: human histiocytic lymphoma U-937 cell line; design: method as in PMID 11213294; conditions: cited from earlier work
oncostatin M signaling = conditions: cell-based; cited from earlier work
Hsp90 ATPase = target: Hsp90 ATPase; design: method as in PMID 23124337; conditions: isolated from Streptomyces hygroscopicus JCM4427; read-out: Hsp90 ATPase inhibition IC50; cited from earlier work
in vitro [4] = conditions: African green monkey
[5] = tested on: tested microorganisms used in this study; assay: Antimicrobial activity test, tested microorganisms of this study; type: cell-based; conditions: at a concentration of 50 μg/mL
[6] = tested on: KB (oral human epidermoid carcinoma, ATCC CCL-17); conditions: KB cells; inactive = at the final concentration of 50 μg/mL
[7] = tested on: NCI-H187 (human small-cell lung cancer, ATCC CRL-5804); conditions: NCI-H187 cells; inactive = at the final concentration of 50 μg/mL
[8] = tested on: MCF-7 (human breast cancer, ATCC HTC-22); conditions: MCF-7 cells; inactive = at the final concentration of 50 μg/mL
[9] = design: method as in PMID 15844966; conditions: final concentration of up to 200 μg/mL; cited from earlier work
E. faecium = tested on: E. faecium; design: method as in PMID 21376551; conditions: cited from earlier work
B. subtilis = tested on: B. subtilis; design: method as in PMID 21376551; conditions: cited from earlier work
V. alginolyticus = tested on: V. alginolyticus; design: method as in PMID 21376551; conditions: cited from earlier work
C. albicans = tested on: C. albicans; design: method as in PMID 21376551; conditions: cited from earlier work
T-47D = tested on: T-47D; design: method as in PMID 21376551; conditions: cited from earlier work
SK-Mel-5 = tested on: SK-Mel-5; design: method as in PMID 21376551; conditions: cited from earlier work
SK-Mel-28 = tested on: SK-Mel-28; design: method as in PMID 21376551; conditions: cited from earlier work
PRMI-7951 = tested on: PRMI-7951; design: method as in PMID 21376551; conditions: cited from earlier work
[10] = tested on: Vero cells (African green monkey kidney fibroblasts, ATCC CCL-81); conditions: inactive = at the final concentration of 50 μg/mL
in vitro [11] = conditions: human
in vitro [12] = conditions: human; remark: listed apart in the source
Syphacia oblevata = tested on: Syphacia oblevata; design: method as in PMID 5459626; conditions: cited from earlier work
Plasmodium berghei = tested on: Plasmodium berghei; design: method as in PMID 5459626; conditions: cited from earlier work
[13] = tested on: HPV-18-positive HeLa cells; design: method as in PMID 28862674; conditions: cervical cancer cell line; cited from earlier work
Setosphaeria turcica = tested on: Setosphaeria turcica; design: method as in PMID 28862674; conditions: plant pathogen; cited from earlier work

COc1c(O)cc2cc1C[C@@H](C)C[C@H](OC)[C@H](O)[C@@H](C)/C=C(\C)[C@H](OC(N)=O)[C@@H](OC)CC/C=C(\C)C(=O)N2 [(3), reblastatin]
Anti-B. cereus MIC (Bacillus cereus): inactive | Anti-M. tuberculosis MIC [1]: inactive | Anti-P. falciparum IC50 [2]: inactive | inhibition of proliferation of U-937 IC50 [3]: 0.43 µg/mL | IC50 (oncostatin M signaling): 160 nM | IC50 (Hsp90 ATPase): 320 nM | IC50 (in vitro [4]): 7.75 µg/mL (≈ 14.1 µM)

Cc1c2ccncc2c(C)c2c1[nH]c1ccccc12 [Ellipticine, reference compound]
IC50 (in vitro [4]): 1.58 µg/mL (≈ 6.41 µM)

O=C1CCC(=O)N(O)CCCCCNC(=O)CCC(=O)N(O)CCCCCNC(=O)CCC(=O)N(O)CCCCCN1 [(5), nocardamine]
Anti-B. cereus MIC (Bacillus cereus): inactive | Anti-M. tuberculosis MIC [1]: inactive | Anti-P. falciparum IC50 [2]: inactive | antimicrobial activity against tested microorganisms [5]: inactive | Cytotoxicity IC50 KB [6]: inactive | Cytotoxicity IC50 NCI-H187 [7]: inactive | Cytotoxicity IC50 MCF-7 [8]: inactive | antimicrobial activity [9]: no antimicrobial activity | antimicrobial activity against E. faecium (E. faecium): weak antimicrobial activity | antimicrobial activity against B. subtilis (B. subtilis): weak antimicrobial activity | antimicrobial activity against V. alginolyticus (V. alginolyticus): no activity | antimicrobial activity against C. albicans (C. albicans): no activity | cell proliferation of T-47D (T-47D): did not inhibit cell proliferation | colony formation of T-47D (T-47D): did inhibit their colony formation | cell proliferation of SK-Mel-5 (SK-Mel-5): did not inhibit cell proliferation | colony formation of SK-Mel-5 (SK-Mel-5): did inhibit their colony formation | cell proliferation of SK-Mel-28 (SK-Mel-28): did not inhibit cell proliferation | colony formation of SK-Mel-28 (SK-Mel-28): did inhibit their colony formation | cell proliferation of PRMI-7951 (PRMI-7951): did not inhibit cell proliferation | colony formation of PRMI-7951 (PRMI-7951): did inhibit their colony formation | IC50 (in vitro [4]): 16.6 µg/mL (≈ 27.6 µM)

O=C1CCC(=O)NCCCCCN(O)C(=O)CCC(=O)NCCCCCN(O)C(=O)CCC(=O)NCCCCCN1 [(6), dehydroxynocardamine]
Anti-B. cereus MIC (Bacillus cereus): inactive | Anti-M. tuberculosis MIC [1]: inactive | Anti-P. falciparum IC50 [2]: inactive | antimicrobial activity against tested microorganisms [5]: inactive | Cytotoxicity IC50 Vero [10]: inactive | Cytotoxicity IC50 KB [6]: inactive | Cytotoxicity IC50 MCF-7 [8]: inactive | antimicrobial activity [9]: no antimicrobial activity | IC50 (in vitro [11]): 14 µg/mL (≈ 23.9 µM)

CO[C@H]1C[C@H](C)Cc2cc(O)cc(c2)NC(=O)/C(C)=C/CC[C@H](OC)[C@@H](OC(N)=O)/C(C)=C/[C@H](C)[C@H]1O [(4), 17-demethoxyreblastatin]
Anti-B. cereus MIC (Bacillus cereus): inactive | Anti-M. tuberculosis MIC [1]: inactive | Anti-P. falciparum IC50 [2]: inactive | Cytotoxicity IC50 KB [6]: inactive | Cytotoxicity IC50 MCF-7 [8]: inactive | IC50 (Hsp90 ATPase): 1820 nM | IC50 (in vitro [4]): 13.5 µg/mL (≈ 26 µM) | IC50 (in vitro [11]): 1.33 µg/mL (≈ 2.56 µM)

CO[C@H]1/C=C\C=C(/C)C(=O)NC2=CC(=O)C(O)=C(C[C@@H](C)C[C@H](OC)[C@H](O)[C@@H](C)/C=C(\C)[C@@H]1OC(N)=O)C2=O [(2), 17-O-demethylgeldanamycin]
Anti-B. cereus MIC (Bacillus cereus): inactive | Anti-M. tuberculosis MIC [1]: inactive | Anti-P. falciparum IC50 [2]: inactive | Cytotoxicity IC50 KB [6]: inactive | Cytotoxicity IC50 MCF-7 [8]: inactive | IC50 (in vitro [4]): 6.43 µg/mL (≈ 11.8 µM) | IC50 (in vitro [11]): 4.25 µg/mL (≈ 7.78 µM)

CC1COc2c(N3CCN(C)CC3)c(F)cc3c(=O)c(C(=O)O)cn1c23 (stereo not drawn) [Ofloxacin, reference compound]
MIC [1]: 0.391 µg/mL (≈ 1.08 µM)

OC(c1cc(C(F)(F)F)nc2c(C(F)(F)F)cccc12)C1CCCCN1 (stereo not drawn) [Mefloquine, reference compound]
IC50 [2]: 0.024 µg/mL (≈ 0.0634 µM)

NNC(=O)c1ccncc1 [Isoniazid, reference compound]
MIC [1]: 0.047 µg/mL (≈ 0.343 µM)

CC/C(=C(\c1ccccc1)c1ccc(OCCN(C)C)cc1)c1ccccc1 [Tamoxifen, reference compound]
IC50 (in vitro [12]): 6.96 µg/mL (≈ 18.7 µM)

CC[C@@H](CO)NCCN[C@@H](CC)CO [Ethambutol, reference compound]
MIC [1]: 0.938 µg/mL (≈ 4.59 µM)

CO[C@H]1/C=C/O[C@@]2(C)Oc3c(C)c(O)c4c(O)c(c(/C=N/N5CCN(C)CC5)c(O)c4c3C2=O)NC(=O)/C(C)=C\C=C\[C@H](C)[C@H](O)[C@@H](C)[C@@H](O)[C@@H](C)[C@H](OC(C)=O)[C@@H]1C [Rifampicin, reference compound]
MIC [1]: 0.013 µg/mL (≈ 0.0158 µM)

C[C@H]1[C@@H](O)O[C@@H]2O[C@@]3(C)CC[C@H]4[C@H](C)CC[C@@H]1[C@@]24OO3 [Dihydroartemisinine, reference compound]
IC50 [2]: 0.000702 µg/mL (≈ 0.00247 µM)

CN[C@H](CC(C)C)C(=O)N[C@H]1C(=O)N[C@@H](CC(N)=O)C(=O)N[C@H]2C(=O)N[C@H]3C(=O)N[C@H](C(=O)N[C@H](C(=O)O)c4cc(O)cc(O)c4-c4cc3ccc4O)[C@H](O)c3ccc(c(Cl)c3)Oc3cc2cc(c3O[C@@H]2O[C@H](CO)[C@@H](O)[C@H](O)[C@H]2O[C@H]2C[C@](C)(N)[C@H](O)[C@H](C)O2)Oc2ccc(cc2Cl)[C@H]1O [Vancomycin, reference compound]
MIC (Bacillus cereus; Bacillus cereus): 2 µg/mL (≈ 1.38 µM)

COC1=C2C[C@@H](C)C[C@H](OC)[C@H](O)[C@@H](C)/C=C(\C)[C@H](OC(N)=O)[C@@H](OC)/C=C\C=C(/C)C(=O)NC(=CC1=O)C2=O [(1), geldanamycin]
Anti-B. cereus MIC (Bacillus cereus): inactive | Anti-M. tuberculosis MIC [1]: inactive | Anti-P. falciparum IC50 [2]: inactive | in vivo anti-parasitic activity against Syphacia oblevata (Syphacia oblevata): in vivo anti-parasitic activity | in vivo anti-parasitic activity against Plasmodium berghei (Plasmodium berghei): not against Plasmodium berghei | growth of HPV-18-positive HeLa cells [13]: inhibited the growth | antifungal activity against Setosphaeria turcica (Setosphaeria turcica): antifungal activity | IC50 (in vitro [4]): 0.094 µg/mL (≈ 0.168 µM)
